Results from patent publication US12558363B2, “Compositions for clinical complications associated to devices implanted in the urinary tract” (Devicare SL, priority 2019, dated 2026).
Several values for one entry are separate records, joined by “and”; a condition that tells them apart may be missing. Equal entries are not always repeated. Entries after “also recorded” stand apart in the source; their conditions may differ.

Assays:
[1] = system: Mucin; test: Conditioning film generation: accumulated protein on medical device fragment in continuous flow artificial urine system (Lowry); conditions: for Quantity of accumulated protein (Mucin), Experiment 1 / Quantity of accumulated protein (Mucin), Experiment 2: 48 hours irrigation of Tygon fragment, pH 6.5; for Quantity of accumulated protein (Mucin), Experiment 1 / Quantity of accumulated protein (Mucin), Experiment 2 / Quantity of accumulated protein (Mucin), Average: NAC 20 mg/L and/or phytate 2 ppm; for Quantity of accumulated protein (Mucin), Average: average of Experiments 1 and 2, 48 hours; for Reduction in the precipitation of protein, compounds tested individually: phytate 2 ppm or NAC 20 mg/L alone, compared with the combination
[2] = Struvite crystal formation/adhesion on catheter portions in artificial urine; conditions: for Struvite crystals formation ratio (crystals without phytate divided by crystals with phytate) / # struvite crystals with phytate (2 ppm): phytate 2 ppm; for # struvite crystals with phytate (2 ppm): pH 7.2, 37° C., not washed catheter portion
[3] = system: Pseudomonas aeruginosa PAO1; assay type: cell-based; conditions: 24 h

CC(=O)N[C@@H](CS)C(=O)O [NAC, N-acetylcysteine, reference compound]
Quantity of accumulated protein (Mucin), Experiment 1 [1]: 30.0 mg/L | Quantity of accumulated protein (Mucin), Experiment 2 [1]: 66.5 mg/L | Quantity of accumulated protein (Mucin), Average [1]: 48.3 mg/L | Reduction in the precipitation of protein, compounds tested individually [1]: a reduction in the precipitation was observed but of less intensity

O=P(O)(O)O[C@H]1[C@H](OP(=O)(O)O)[C@@H](OP(=O)(O)O)[C@H](OP(=O)(O)O)[C@@H](OP(=O)(O)O)[C@H]1OP(=O)(O)O [phytate, myo-inositol-hexaphosphate]
Struvite crystals adhered in catheters ([2]; 9.28 g/L NH4+, 1 ppm phytate (FIG. 3B)): 2 crystals | Struvite crystals adhered in catheters ([2]; 18.56 g/L NH4+, 1 ppm phytate (FIG. 3D)): 5 crystals | Size of struvite crystals formed (electron microscopy) ([2]; 24 h): smaller than the crystals formed in absence of phytate | Struvite crystals formation ratio (crystals without phytate divided by crystals with phytate) ([2]; time of reaction 12 hours): 1.45 | # struvite crystals with phytate (2 ppm) ([2]; time of reaction 12 hours): 20 | Struvite crystals formation ratio (crystals without phytate divided by crystals with phytate) ([2]; time of reaction 24 hours): 3.85 and 2.4 | # struvite crystals with phytate (2 ppm) ([2]; time of reaction 24 hours): 6.5 and 5 | Number of adhered bacteria in the surface of incubated catheters [3]: significative decrease; also recorded: lower | Quantity of accumulated protein (Mucin), Experiment 1 [1]: 33.0 mg/L | Quantity of accumulated protein (Mucin), Experiment 2 [1]: 57.5 mg/L | Quantity of accumulated protein (Mucin), Average [1]: 45.3 mg/L | Reduction in the precipitation of protein, compounds tested individually [1]: a reduction in the precipitation was observed but of less intensity
